Source: publication PMC2669294, “The Spliceosomal Phosphopeptide P140 Controls the Lupus Disease by Interacting with the HSC70 Protein and via a Mechanism Mediated by γδ T Cells” (PLoS ONE, 2009)
One block for each molecule: values may come before it. Non-standard residues stand in square brackets, D forms with d. Residues, ends and D or L forms follow the SMILES beside them. No end group written: not given here. pS = N[C@@H](COP(=O)(O)O)C(=O)O

What was measured:
MRL/lpr mice = tested on: MRL/lpr mice; parameters: method as in PMID 2397613; details: cited from earlier work
SLE patients = details: human, in vivo; cited from earlier work
[1] = biological target: HSC70 (heat-shock cognate 71-kDa protein) (UniProt P63017); experiment: biotin-peptide on cells, lysis, avidin-agarose pull-down; details: reference: non-phosphorylated biotin-peptide 131-151; sites S140
Recombinant bovine HSC70 [2] = biological target: T1, Recombinant bovine HSC70 (Bos taurus, UniProt P19120); experiment: Surface plasmon resonance, direct binding of peptides to immobilized HSC70; details: SPR BIAcore 3000, HSC70 immobilized via thiol groups on CM5, HBS-EP pH 7.4, 25°C, peptide 1.56 to 12.5 µM, 1:1 Langmuir model; for kon: read-out: association rate constant (kon); for koff: read-out: dissociation rate constant (koff)
T1 construct: purchased Stressgen
T1 sequence (P19120 whole entry): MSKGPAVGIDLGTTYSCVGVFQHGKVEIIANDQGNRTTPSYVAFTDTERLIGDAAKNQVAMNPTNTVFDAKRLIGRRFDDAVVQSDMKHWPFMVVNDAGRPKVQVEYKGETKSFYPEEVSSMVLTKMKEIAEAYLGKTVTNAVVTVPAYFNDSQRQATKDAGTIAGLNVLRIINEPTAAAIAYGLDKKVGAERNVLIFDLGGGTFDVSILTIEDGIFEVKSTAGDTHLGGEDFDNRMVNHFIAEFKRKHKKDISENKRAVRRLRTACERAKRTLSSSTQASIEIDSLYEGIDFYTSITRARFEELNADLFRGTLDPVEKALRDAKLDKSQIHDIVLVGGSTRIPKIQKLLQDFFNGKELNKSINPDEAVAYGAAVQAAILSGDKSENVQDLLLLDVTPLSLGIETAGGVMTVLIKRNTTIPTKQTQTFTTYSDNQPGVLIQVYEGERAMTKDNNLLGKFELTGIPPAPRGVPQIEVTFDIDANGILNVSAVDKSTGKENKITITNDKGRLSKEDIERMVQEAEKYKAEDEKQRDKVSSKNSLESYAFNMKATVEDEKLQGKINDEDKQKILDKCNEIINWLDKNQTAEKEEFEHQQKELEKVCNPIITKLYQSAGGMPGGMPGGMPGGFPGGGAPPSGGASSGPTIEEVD
Procedure: To assess P140 binding to HSC70, we investigated the binding parameters and kinetics by surface plasmon resonance. HSC70 was immobilized onto the sensor chip via one of its four thiol groups, and different concentrations of P140 and 131–151 peptides were injected in the flux followed by a dissociation phase (see the overlay surface plasmon resonance plots of the raw data in Figure 1B). […] Similar data were obtained when biotinylated P140 was on the chip and HSC70 in solution. Thus, in this in vitro system, both peptides bind with medium affinity (µM range) to HSC70. […] Of significant importance, no binding was observed between P140 and Hsp70.
BIAcore 3000 system (Biacore AB) was used to evaluate the binding of P140 peptide to HSC70 protein. Sensor chip CM5, surfactant P20, amine coupling kit containing N-hydroxysuccinimide (NHS) and N-ethyl-N′-dimethylaminopropyl carbodiimide (EDC), 2-(2-pyridinyldithio)ethaneamine (PDEA) and ethanolamine were from Biacore AB. Biosensor assays were performed with HBS-EP buffer as running buffer (10 mM HEPES, 150 mM NaCl, 3 mM EDTA, 0.005% surfactant P20, pH 7.4). The different compounds were diluted in the running buffer. The sensor chip surface was regenerated after each experiment by injecting 10 µL of 10 mM HCl. Recombinant bovine HSC70 (Stressgen) was immobilized on flow cells of a CM5 sensor chip through its thiol groups using 35 µL PDEA in 50 mM borate buffer, pH 8.3 on the NHS/EDC-activated matrix. Then, 35 µL of HSC70 (100 µg/mL in formate buffer, pH 4.3) were injected until a response of 13,000 response units (RU) corresponding to 13 ng/mm^2 of HSC70 was immobilized. Twenty µL of a 50 mM cysteine/1 M NaCl solution was used to saturate unoccupied sites on the chip. The direct binding measurement of P140 peptides to HSC70 was carried out at 25°C with a constant flow rate of 20 µL/min. P140 peptide and analogues were injected in the flux at different concentrations for 3 min, followed by a dissociation phase of 3 min. The kinetic parameters were calculated using the BIAeval 3.1 software on a personal computer. Analysis was performed using the simple 1∶1 Langmuir binding model. The specific binding profiles were obtained after subtracting the response signal from the control empty channel and from blank-buffer injection. The fitting to each model was judged by the χ square value and randomness of residue distribution compared to the theoretical model.

[3] = Solubility limit by dynamic light scattering; assay type: physicochemical
Procedure: The solubility of P140 and 131–151 peptides was determined at 20 and 37°C using dynamic light scattering measurements. […] The integrity of P140, as measured in saline and PBS by high-performance liquid chromatography from the area of the peak corresponding to the intact peptide, remained intact during at least 60 days at 37°C (Figure 2D).
The synthesis and purification of P140 peptide (RIHMVYSKRpSGKPRGYAFIEY; produced under Good Manufacturing Practice conditions), and of peptides 131–151 ([…]) and ScP140 (YVSRYFGpSAIRHEPKMKIYRG) were described previously, [3], [7]. For the biotin-labeled peptides, the biotin moiety was introduced at the end of peptide assembly as a Fmoc-Lys(biotin)-OH derivative. Homogeneity of peptides was checked by analytical high-performance liquid chromatography, and their identity was assessed by matrix-assisted laser desorption and ionization time-of-flight (TOF) mass spectrometry using a Protein TOF apparatus (Bruker Spectrospin). The solubility limits of both peptides in the cell culture medium RPMI 1640, PBS and distilled water were determined at 20 and 37°C using dynamic light scattering measurements.

recombinant bovine HSC70 [4] = biological target: T2, recombinant bovine HSC70 (bovine, UniProt P19120 1-650); experiment: SPR; BIAcore 3000; recombinant bovine HSC70 immobilised on CM5 chip through its thiol groups (13,000 RU); peptides injected (1.56 to 12.5 µM) 3 min, dissociation 3 min; 25°C, 20 µL/min; HBS-EP pH 7.4; 1:1 Langmuir model; details: both partners purified
T2 construct: heat-shock cognate HSC70 protein, bovine, recombinant (Stressgen); Immobilised through one of its four thiol groups in the SPR experiment; no tag is named; also called recombinant HSC70 protein; source: bought: Stressgen (recombinant)
T2 sequence (P19120 whole entry): as above

Molecule: N=C(N)NCCCCCCC(=O)NC(O)C(=O)NCCCCNCCCN (centres unmarked) [15-deoxyspergualin]
progression of polyclonal B cell activation and lupus nephropathy (MRL/lpr mice): suppressed the progression | treated patients with non-severe infectious episodes (SLE patients): two of three

Molecule: U1-70K small nuclear ribonucleoparticle protein 131-151 (from UniProt Q62376) biotin-P140 (pS140)
binding against the reference [1]: same

Molecule: RIHMVYSKRSGKPRGYAFIEY [131–151]
kon (Recombinant bovine HSC70 [2]): 606 M⁻¹ s⁻¹ | koff (Recombinant bovine HSC70 [2]): 0.00407 s⁻¹ | solubility ([3]; 200 µM-solution in water, PBS and culture medium (RPMI 1640), 20 and 37°C): highly soluble

Other lines, results leading:

kon (Recombinant bovine HSC70 [2]): 530 M⁻¹ s⁻¹ | koff (Recombinant bovine HSC70 [2]): 0.00388 s⁻¹ | solubility ([3]; in water): highly soluble
Molecule: CC[C@H](C)[C@H](NC(=O)[C@H](Cc1ccccc1)NC(=O)[C@H](C)NC(=O)[C@H](Cc1ccc(O)cc1)NC(=O)CNC(=O)[C@H](CCCNC(=N)N)NC(=O)[C@@H]1CCCN1C(=O)[C@H](CCCCN)NC(=O)CNC(=O)[C@H](COP(=O)(O)O)NC(=O)[C@H](CCCNC(=N)N)NC(=O)[C@H](CCCCN)NC(=O)[C@H](CO)NC(=O)[C@H](Cc1ccc(O)cc1)NC(=O)[C@@H](NC(=O)[C@H](CCSC)NC(=O)[C@H](Cc1c[nH]cn1)NC(=O)[C@@H](NC(=O)[C@@H](N)CCCNC(=N)N)[C@@H](C)CC)C(C)C)C(=O)N[C@@H](CCC(=O)O)C(=O)N[C@@H](Cc1ccc(O)cc1)C(=O)O [P140] (HELM PEPTIDE1{R.I.H.M.V.Y.S.K.R.[O=C([C@H](COP(=O)(O)O)N[*:1])[*:2]].G.K.P.R.G.Y.A.F.I.E.Y}$$$$V2.0)

Kd (recombinant bovine HSC70 [4]): 6.72 µM
B1: non-phosphorylated peptide 131-151 of the U1-70K snRNP protein (peptide)
peptide: RIHMVYSKRSGKPRGYAFIEY
notes: also called non-phosphorylated analogue; source: synthetic peptide

Kd (recombinant bovine HSC70 [4]): 7.32 µM
B2: P140 peptide (U1-70K snRNP protein residues 131-151, phosphorylated on Ser140) (peptide)
peptide: RIHMVYSKR[pS]GKPRGYAFIEY
notes: pS is the phosphoserine; also called phosphopeptide P140; source: synthetic peptide
